The text below walks through data of US9670227B2, “Thienopyrimidine derivatives, a process for their preparation and pharmaceutical compositions containing them” (LES LABORATOIRES SERVIER, priority 2013, dated 2017).

The target of the assay is Mcl-1 protein (UniProtKB primary accession number: Q07820) (Homo sapiens, UniProt Q07820). The assay is described as follows: Inhibition of Mcl-1 by fluorescence polarisation, Method 1. Format: binding. The settings on record: fluorescence polarisation; Method 1, or Method 2; read-out: IC50 (M) Mcl-1 FP. Put shortly:
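FP competition, 11-point compound titration in 5% final DMSO; protein and labelled probe at 5 nM and 1 nM final in HEPES/NaCl/Tween 20 buffer, pH 7.4.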
(In general: In fluorescence polarisation assays a small probe gives low polarisation when free and higher when bound to something large.)

Usually IC50 stands for the concentration needed to halve the response being measured.

Sequence of Mcl-1 protein (Q07820 whole entry): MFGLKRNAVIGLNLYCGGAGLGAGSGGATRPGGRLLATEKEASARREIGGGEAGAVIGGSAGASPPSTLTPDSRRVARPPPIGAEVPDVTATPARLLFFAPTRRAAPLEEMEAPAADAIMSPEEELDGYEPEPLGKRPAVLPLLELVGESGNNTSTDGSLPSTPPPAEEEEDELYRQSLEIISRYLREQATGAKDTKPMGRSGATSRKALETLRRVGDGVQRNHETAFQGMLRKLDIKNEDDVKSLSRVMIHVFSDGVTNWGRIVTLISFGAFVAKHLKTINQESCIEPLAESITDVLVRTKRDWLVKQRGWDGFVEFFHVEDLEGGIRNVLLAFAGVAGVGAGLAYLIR

For `Cc1c(-c2c(-c3ccccc3)sc3ncnc(OC(Cc4ccccc4)C(=O)O)c23)ccc(OCCN2CCN(C)CC2)c1Cl` [Example 502, (2R)-2-[((5Sa)-5-{3-chloro-2-methyl-4-[2-(4-methylpiperazin-1-yl)ethoxy]phenyl}-6-phenylthieno[2,3-d]pyrimidin-4-yl)oxy]-3-phenylpropanoic acid], the IC50 was 1.9e-08 M.
As for `Cc1c(-c2c(-c3ccco3)sc3ncnc(OC(Cc4ccccc4)C(=O)O)c23)ccc(OCCN2CCN(C)CC2)c1Cl` [Example 504, (2R)-2-{[(5Sa)-5-{3-chloro-2-methyl-4-[2-(4-methylpiperazin-1-yl)ethoxy]phenyl}-6-(furan-2-yl)thieno[2,3-d]pyrimidin-4-yl]oxy}-3-phenylpropanoic acid], the figure is 2.9e-08 M; as for `Cc1c(-c2c(-c3cccs3)sc3ncnc(OC(Cc4ccccc4)C(=O)O)c23)ccc(OCCN2CCN(C)CC2)c1Cl` [Example 505, (2R)-2-{[(5Sa)-5-{3-chloro-2-methyl-4-[2-(4-methylpiperazin-1-yl)ethoxy]phenyl}-6-(thiophen-2-yl)thieno[2,3-d]pyrimidin-4-yl]oxy}-3-phenylpropanoic acid], 5.8e-08 M.
The figure for `Cc1c(-c2c(-c3ccncc3)sc3ncnc(OC(Cc4ccccc4)C(=O)O)c23)ccc(OCCN2CCN(C)CC2)c1Cl` [Example 507, (2R)-2-{[(5Sa)-5-{3-chloro-2-methyl-4-[2-(4-methylpiperazin-1-yl)ethoxy]phenyl}-6-(pyridin-4-yl)thieno[2,3-d]pyrimidin-4-yl]oxy}-3-phenylpropanoic acid] is 2.2e-07 M.
As for `Cc1c(-c2c(-c3ccnn3C)sc3ncnc(OC(Cc4ccccc4)C(=O)O)c23)ccc(OCCN2CCN(C)CC2)c1Cl` [Example 508, (2R)-2-{[(5Sa)-5-{3-chloro-2-methyl-4-[2-(4-methylpiperazin-1-yl)ethoxy]phenyl}-6-(1-methyl-1H-pyrazol-5-yl)thieno[2,3-d]pyrimidin-4-yl]oxy}-3-phenylpropanoic acid], the figure is 3.7e-07 M; as for `Cc1sccc1-c1sc2ncnc(OC(Cc3ccccc3)C(=O)O)c2c1-c1ccc(OCCN2CCN(C)CC2)c(Cl)c1C` [Example 511, (2R)-2-{[(5Sa)-5-{3-chloro-2-methyl-4-[2-(4-methylpiperazin-1-yl)ethoxy]phenyl}-6-(2-methylthiophen-3-yl)thieno[2,3-d]pyrimidin-4-yl]oxy}-3-phenylpropanoic acid], 4.8e-07 M; as for `Cc1c(-c2c(-c3cnn(C)c3)sc3ncnc(OC(Cc4ccccc4)C(=O)O)c23)ccc(OCCN2CCN(C)CC2)c1Cl` [Example 513, (2R)-2-{[(5Sa)-5-{3-chloro-2-methyl-4-[2-(4-methylpiperazin-1-yl)ethoxy]phenyl}-6-(1-methyl-1H-pyrazol-4-yl)thieno[2,3-d]pyrimidin-4-yl]oxy}-3-phenylpropanoic acid], 3.7e-07 M.
Take `Cc1nc(-c2sc3ncnc(OC(Cc4ccccc4)C(=O)O)c3c2-c2ccc(OCCN3CCN(C)CC3)c(Cl)c2C)cs1` [Example 515, (2R)-2-{[(5Sa)-5-{3-chloro-2-methyl-4-[2-(4-methylpiperazin-1-yl)ethoxy]phenyl}-6-(2-methyl-1,3-thiazol-4-yl)thieno[2,3-d]pyrimidin-4-yl]oxy}-3-phenylpropanoic acid]: the IC50 was found to be 8.4e-08 M.
The figure for `Cc1ccsc1-c1sc2ncnc(OC(Cc3ccccc3)C(=O)O)c2c1-c1ccc(OCCN2CCN(C)CC2)c(Cl)c1C` [Example 517, (2R)-2-{[(5Sa)-5-{3-chloro-2-methyl-4-[2-(4-methylpiperazin-1-yl)ethoxy]phenyl}-6-(3-methylthiophen-2-yl)thieno[2,3-d]pyrimidin-4-yl]oxy}-3-phenylpropanoic acid] is 5.1e-07 M; for `CC#Cc1sc2ncnc(OC(Cc3ccccc3)C(=O)O)c2c1-c1ccc(OCCN2CCN(C)CC2)c(Cl)c1C` [Example 519, (2R)-2-{[(5Sa)-5-{3-chloro-2-methyl-4-[2-(4-methylpiperazin-1-yl)ethoxy]phenyl}-6-(prop-1-yn-1-yl)thieno[2,3-d]pyrimidin-4-yl]oxy}-3-phenylpropanoic acid] it is 2.3e-08 M.
As for `Cc1c(-c2c(C#CC3CC3)sc3ncnc(OC(Cc4ccccc4)C(=O)O)c23)ccc(OCCN2CCN(C)CC2)c1Cl` [Example 520, (2R)-2-{[(5Sa)-5-{3-chloro-2-methyl-4-[2-(4-methylpiperazin-1-yl)ethoxy]phenyl}-6-(cyclopropylethynyl)thieno[2,3-d]pyrimidin-4-yl]oxy}-3-phenylpropanoic acid], the figure is 4.1e-08 M; as for `Cc1c(-c2c(C#N)sc3ncnc(OC(Cc4ccccc4)C(=O)O)c23)ccc(OCCN2CCN(C)CC2)c1Cl` [Example 521, (2R)-2-[((5Sa)-5-{3-chloro-2-methyl-4-[2-(4-methylpiperazin-1-yl)ethoxy]phenyl}-6-cyanothieno[2,3-d]pyrimidin-4-yl)oxy]-3-phenylpropanoic acid], 2.4e-07 M; as for `CC(=O)c1sc2ncnc(OC(Cc3ccccc3)C(=O)O)c2c1-c1ccc(OCCN2CCN(C)CC2)c(Cl)c1C` [Example 522, (2R)-2-[(6-acetyl-(5Sa)-5-{3-chloro-2-methyl-4-[2-(4-methylpiperazin-1-yl)ethoxy]phenyl}thieno[2,3-d]pyrimidin-4-yl)oxy]-3-phenylpropanoic acid], 7.5e-08 M.
As for `COc1ccccc1CC(Oc1ncnc2sc(-c3ccc(F)c(F)c3F)c(-c3ccc(OCCN4CCN(C)CC4)c(Cl)c3C)c12)C(=O)O` [Example 537, (2R)-2-{[(5Sa)-5-{3-chloro-2-methyl-4-[2-(4-methylpiperazin-1-yl)ethoxy]phenyl}-6-(2,3,4-trifluorophenyl)thieno[2,3-d]pyrimidin-4-yl]oxy}-3-(2-methoxyphenyl)propanoic acid], the figure is 4.3e-08 M.
Consider `COc1ccccc1CC(Oc1ncnc2sc(-c3ccc(C(OC)OC)o3)c(-c3ccc(OCCN4CCN(C)CC4)c(Cl)c3C)c12)C(=O)O` [Example 542, (2R)-2-[((5Sa)-5-{3-chloro-2-methyl-4-[2-(4-methylpiperazin-1-yl)ethoxy]phenyl}-6-[5-(dimethoxymethyl)furan-2-yl]thieno[2,3-d]pyrimidin-4-yl)oxy]-3-(2-methoxyphenyl)propanoic acid], for which the IC50 is 4.3e-07 M.
For the compound `COc1ccccc1CC(Oc1ncnc2sc(-c3cccc(Cl)c3)c(-c3ccc(OCCN4CCN(C)CC4)c(Cl)c3C)c12)C(=O)O` [Example 550, (2R)-2-{[(5Sa)-5-{3-chloro-2-methyl-4-[2-(4-methylpiperazin-1-yl)ethoxy]phenyl}-6-(3-chlorophenyl)thieno[2,3-d]pyrimidin-4-yl]oxy}-3-(2-methoxyphenyl)propanoic acid], the IC50 was 4.8e-08 M.
For `COc1ccccc1CC(Oc1ncnc2sc(-c3cccc(F)c3)c(-c3ccc(OCCN4CCN(C)CC4)c(Cl)c3C)c12)C(=O)O` [Example 551, (2R)-2-{[(5Sa)-5-{3-chloro-2-methyl-4-[2-(4-methylpiperazin-1-yl)ethoxy]phenyl}-6-(3-fluorophenyl)thieno[2,3-d]pyrimidin-4-yl]oxy}-3-(2-methoxyphenyl)propanoic acid], the IC50 amounted to 2.8e-08 M.
As for `COc1ccccc1CC(Oc1ncnc2sc(-c3cccc(OC(F)(F)F)c3)c(-c3ccc(OCCN4CCN(C)CC4)c(Cl)c3C)c12)C(=O)O` [Example 555, (2R)-2-[((5Sa)-5-{3-chloro-2-methyl-4-[2-(4-methylpiperazin-1-yl)ethoxy]phenyl}-6-[3-(trifluoromethoxy)phenyl]thieno[2,3-d]pyrimidin-4-yl)oxy]-3-(2-methoxyphenyl)propanoic acid], the figure is 3.9e-07 M; as for `COc1ccccc1CC(Oc1ncnc2sc(-c3cccc(Oc4ccc(F)cc4)c3)c(-c3ccc(OCCN4CCN(C)CC4)c(Cl)c3C)c12)C(=O)O` [Example 556, (2R)-2-[((5Sa)-5-{3-chloro-2-methyl-4-[2-(4-methylpiperazin-1-yl)ethoxy]phenyl}-6-[3-(4-fluorophenoxy)phenyl]thieno[2,3-d]pyrimidin-4-yl)oxy]-3-(2-methoxyphenyl)propanoic acid], 1.2e-08 M; as for `COc1ccccc1CC(Oc1ncnc2sc(-c3cccc(OC(F)(F)F)c3F)c(-c3ccc(OCCN4CCN(C)CC4)c(Cl)c3C)c12)C(=O)O` [Example 562, (2R)-2-[((5Sa)-5-{3-chloro-2-methyl-4-[2-(4-methylpiperazin-1-yl)ethoxy]phenyl}-6-[2-fluoro-3-(trifluoromethoxy)phenyl]thieno[2,3-d]pyrimidin-4-yl)oxy]-3-(2-methoxyphenyl)propanoic acid], 5.1e-07 M.
As for `COc1ccccc1CC(Oc1ncnc2sc(-c3ccccc3F)c(-c3ccc(OCCN4CCN(C)CC4)c(Cl)c3C)c12)C(=O)O` [Example 566, (2R)-2-{[(5Sa)-5-{3-chloro-2-methyl-4-[2-(4-methylpiperazin-1-yl)ethoxy]phenyl}-6-(2-fluorophenyl)thieno[2,3-d]pyrimidin-4-yl]oxy}-3-(2-methoxyphenyl)propanoic acid], the figure is 3e-08 M.
As for `COc1ccccc1CC(Oc1ncnc2sc(-c3cccnc3)c(-c3ccc(OCCN4CCN(C)CC4)c(Cl)c3C)c12)C(=O)O` [Example 567, (2R)-2-{[(5Sa)-5-{3-chloro-2-methyl-4-[2-(4-methylpiperazin-1-yl)ethoxy]phenyl}-6-(pyridin-3-yl)thieno[2,3-d]pyrimidin-4-yl]oxy}-3-(2-methoxyphenyl)propanoic acid], the figure is 2.1e-08 M.
Consider `CC#Cc1sc2ncnc(OC(Cc3ccccc3OC)C(=O)O)c2c1-c1ccc(OCCN2CCN(C)CC2)c(Cl)c1C` [Example 572, (2R)-2-{[(5Sa)-5-{3-chloro-2-methyl-4-[2-(4-methylpiperazin-1-yl)ethoxy]phenyl}-6-(prop-1-yn-1-yl)thieno[2,3-d]pyrimidin-4-yl]oxy}-3-(2-methoxyphenyl)propanoic acid], for which the IC50 came out at 1.9e-08 M.
